From US20070117804A1, “Imidazopyrazines as protein kinase inhibitors” (Schering Corporation, priority 2005, published 2007)
pIC50: −log10 of the molar value.

Legend:
[1] = target: T1, Cyclin E/CDK2 (Homo sapiens, UniProt P24941); assay: CDK2 assay (Cyclin E/CDK2 in vitro kinase SPA assay, biotinylated Histone H1 peptide); assay type: biochemical; details: read-out: CDK2 IC 50
T1 construct: made in house; host or cells: SF9 insect cells, baculovirus co-infection

[2] = target: T2, His-CHK1 (Homo sapiens, UniProt O14757); assay: CHK1 SPA assay (recombinant His-CHK1, biotinylated CDC25C peptide, 33P-ATP)
T2 sequence (O14757 1-265 limits assumed): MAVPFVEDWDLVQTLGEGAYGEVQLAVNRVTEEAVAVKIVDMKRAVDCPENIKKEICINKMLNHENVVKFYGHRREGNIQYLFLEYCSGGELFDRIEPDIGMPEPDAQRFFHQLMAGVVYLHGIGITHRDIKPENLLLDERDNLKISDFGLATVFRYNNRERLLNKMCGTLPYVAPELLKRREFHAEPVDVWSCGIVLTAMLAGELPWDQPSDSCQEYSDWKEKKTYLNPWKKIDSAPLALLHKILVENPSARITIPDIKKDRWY

Row | SMILES | pIC50 [1] | pIC50 [2]
1 | Cn1cc(-c2cnc3c(Nc4ccns4)nc(CCN)cn23)cn1 | 6.26 | 7.77
2 | CCN(CC)S(=O)(=O)c1sc(Nc2nc(C3=CCCNC3)cn3c(-c4cnn(C)c4)cnc23)cc1C | 5.08 | 
3 | Cc1cc(Nc2nc(C3=CCCNC3)cn3c(-c4cnn(C)c4)cnc23)sc1S(=O)(=O)N1CCOCC1 | 5.16 | 
